# Data reported in PubChem BioAssay AID1996.
# Settings: buffer; pH 7.4; 200.0 µM
row,Structure (SMILES),solubility kinetic [µg/mL]
1,C=CCn1c(SCc2ccc(C(=O)O)cc2)nc2sc(C)c(C)c2c1=O,> 58
2,COc1cc(N)c(Cl)cc1C(=O)OCC(=O)Nc1ccc(N2CCOCC2)cc1,4.9
3,COCCNC(=O)c1cc2c(=O)[nH]c3ccccc3c2s1,3.2
4,CC(=O)C(Sc1ncnc2sc3c(c12)CCCC3)C(C)=O,38.6
5,CCCC(=NC(C)CC)C1=C(O)CC(c2ccccc2)CC1=O (centres undefined),39
6,O=[N+]([O-])c1ccc(CN2CCN(c3ccc([N+](=O)[O-])cc3)CC2)cc1,2
7,CC(C)N(C(=S)Nc1ccc(S(=O)(=O)N2CCOCC2)cc1)c1ccccc1,7.1
8,Cc1ccccc1Sc1ncccc1[N+](=O)[O-],5.1
9,Cc1ccc(NC(=O)CCC(=O)N2CCC(C)CC2)c([N+](=O)[O-])c1,> 50
10,CC1CCCCC1NC(=O)CCS(=O)(=O)c1ccc(Cl)cc1 (centres undefined),22.8
11,O=C(NN1C(=O)NC2(CCCCC2)C1=O)c1cc(F)cc(F)c1,> 48.5
12,CCN(CC)c1cc(Cl)c2nonc2c1N,8.5
13,CC(C)(C)c1ccc(SCCc2cccnc2)cc1,< 0.6
14,CCc1ccc(N2CC(C(=O)OC)CC2=O)cc1 (centres undefined),> 37.1
15,CCOc1ccc(-c2ncncc2-c2ccccc2OC)c(O)c1,34
16,COCCNC(=S)Nc1ccccn1,> 31.7
17,O=C(COC(=O)c1cccnc1Cl)c1ccc(OC(F)F)cc1,51.2
18,COc1ccc(C(=O)NCC2(c3ccccc3)CCOCC2)cc1,47.1
19,O=C(Nc1cc(=O)[nH]c(=O)[nH]1)c1cccc(C(F)(F)F)c1,> 44.9
20,O=[N+]([O-])c1ncc(Br)cc1Nc1ccccc1,16.3

row,Structure (SMILES),solubility kinetic [µg/mL]
1,S=C(NCc1ccccc1)NC1CCSc2ccccc21 (centres undefined),1.2
2,Cc1ccc(C(=O)NCCNC(=O)c2cccnc2)cc1,40
3,Oc1ccccc1N1CCN(c2ccc3ccccc3n2)CC1,4.2
4,CCCCN(C)S(=O)(=O)c1cc2c3c(c1)CCC(=O)N3CCC2,48.6
5,Cc1ccc(-c2nc3ncccc3o2)cc1N,> 33.8
6,COCC(C)NC(=S)NCCc1ccc(Cl)cc1Cl (centres undefined),> 48.2
7,Cc1noc(C)c1CN1C(=O)c2ccc([N+](=O)[O-])cc2C1=O,> 45.2
8,O=c1[nH]c(=S)n(Cc2ccc(F)cc2)c(O)c1C=NCc1ccc2c(c1)OCO2,0.4
9,CCCCS(=O)(=O)N1CCCC(C(=O)NCCc2ccccc2)C1 (centres undefined),14.7
10,CN(C)C(=S)NC(C)(C)C,2.7
11,CC(C)(C)c1ccc(O)c(N=Cc2c(O)ccc3ccccc23)c1,< 0.7
12,N=C(N)c1ccccc1,> 18
13,COc1ccccc1CNC(=O)COC(=O)Cc1ccc(Br)cc1,13.7
14,COc1ccc(C2(c3ccc(OC)cc3)NC(=O)N(CC(=O)Nc3cc(C)on3)C2=O)cc1,27.4
15,CC(C)C(OC(=O)c1nsc(Cl)c1Cl)C(=O)NCc1ccccc1 (centres undefined),10
16,CN(Cc1cnccn1)Cc1nc(Cc2ccccc2F)no1,> 47
17,CCCCCCC(=O)N(O)C1CC(=O)N(c2ccc(Cl)cc2)C1=O (centres undefined),43.9
18,COc1ccc(S(=O)(=O)NCc2cccnc2)cc1C,> 43.9
19,COc1cccc(NC(=O)c2ccccc2C(F)(F)F)c1,> 44.3
20,Cc1ccc(-c2csc(NC(=O)C3CC(=O)N(Cc4ccco4)C3)n2)cc1 (centres undefined),12.1

row,Structure (SMILES),solubility kinetic [µg/mL]
1,Cc1cccc2nc3c(nc12)CCCC3,6.4
2,CC(=O)Nc1c(O)nc(C)[nH]c1=O,> 27.5
3,CCOc1ccc(C(=O)NCC(c2cccs2)N2CCOCC2)cc1 (centres undefined),> 54.1
4,CC1CCCCC12NC(=O)N(CC(=O)NCc1ccco1)C2=O (centres undefined),> 47.9
5,Cc1ccc(NC(=O)COc2ccc3c(c2)OCO3)c(C)c1,6.1
6,OCCCNc1ncnc2scc(-c3ccc(Cl)cc3)c12,> 48
7,Cc1c(Cl)cccc1NC(=O)C1CCCN(S(C)(=O)=O)C1 (centres undefined),7.3
8,CCN(CC)C(=O)n1c(Cc2ccccc2)nc2ccccc21,> 46.1
9,CCN1CCc2nc(N)sc2C1,25.8
10,O=C(Nc1nnc(-c2ccco2)o1)c1cccc(N2C(=O)CCC2=O)c1,> 52.8
11,CC1=C(C(=O)OC2CCCCC2)C(c2ccccc2F)NC(=O)N1 (centres undefined),0.5
12,Cc1nc2c(C#N)cnn2c2c1CCN2CC1CCCO1 (centres undefined),> 42.5
13,CN(Cc1ccccc1)C(=O)c1ccc(S(=O)(=O)N(C)c2ccccc2)cc1,26.1
14,Cc1cc(C)cc(NC(=O)CS(=O)(=O)c2ccccc2)c1,44.2
15,CC(C)CCSc1nnc(N)s1,> 30.5
16,Cc1ccc(OC(C)C(=O)Nc2ccc(Cl)cn2)c([N+](=O)[O-])n1 (centres undefined),18.7
17,Cc1ccc(S(=O)(=O)NC2=NCN(CC(=O)[O-])CN2)cc1.[Na+],> 50.1
18,O=C(CNC(=O)c1ccco1)OCc1ccc(Br)cc1,40.5
19,Cc1cc(C(=O)OCC(=O)N2CCOCC2)c(C)n1-c1ccccc1,48.6
